Measurements taken from PubChem BioAssay AID2060904 (Molecular Pharmacology Branch, DTP, NCI, 2025).

Tested on: 349418-098-R-PDC complex spheroid viability
Assay: Anticancer human tumor 349418-098-R-PDC patient-derived lung adenocarcinoma cell line growth inhibition [RAS]
Settings: for viability, T/C: stronger effect = lower value
In short: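 Tumour cells grown as complex spheroids with HUVEC endothelial cells and mesenchymal stem cells, treated with RAS pathway inhibitor combinations. Each agent spans half-log steps from near clinical Cmax, or 10 microM where Cmax is unknown.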

[1] = curve of first compound, second compound 0.00316 µM
[2] = curve of first compound, second compound 0.01 µM
[3] = curve of first compound, second compound 0.0316 µM
[4] = curve of first compound, second compound 0.1 µM
[5] = curve of first compound, second compound 0.316 µM
[6] = curve of first compound, second compound 1 µM
[7] = second compound 0.00316 µM, first compound 0.0316 µM
[8] = second compound 0.00316 µM, first compound 0.1 µM
[9] = second compound 0.00316 µM, first compound 0.316 µM
[10] = second compound 0.00316 µM, first compound 1 µM
[11] = second compound 0.01 µM, first compound 0.0316 µM
[12] = second compound 0.01 µM, first compound 0.1 µM
[13] = second compound 0.01 µM, first compound 0.316 µM
[14] = second compound 0.01 µM, first compound 1 µM
[15] = second compound 0.0316 µM, first compound 0.0316 µM
[16] = second compound 0.0316 µM, first compound 0.1 µM
[17] = second compound 0.0316 µM, first compound 0.316 µM
[18] = second compound 0.0316 µM, first compound 1 µM
[19] = second compound 0.1 µM, first compound 0.0316 µM
[20] = second compound 0.1 µM, first compound 0.1 µM
[21] = second compound 0.1 µM, first compound 0.316 µM
[22] = second compound 0.1 µM, first compound 1 µM
[23] = second compound 0.316 µM, first compound 0.0316 µM
[24] = second compound 0.316 µM, first compound 0.1 µM
[25] = second compound 0.316 µM, first compound 0.316 µM
[26] = second compound 0.316 µM, first compound 1 µM
[27] = second compound 1 µM, first compound 0.0316 µM
[28] = second compound 1 µM, first compound 0.1 µM
[29] = second compound 1 µM, first compound 0.316 µM
[30] = second compound 1 µM, first compound 1 µM
[31] = second compound 0.0316 µM, first compound 3.16 µM
[32] = second compound 0.0316 µM, first compound 10 µM
[33] = second compound 0.1 µM, first compound 3.16 µM
[34] = second compound 0.1 µM, first compound 10 µM
[35] = second compound 0.316 µM, first compound 3.16 µM
[36] = second compound 0.316 µM, first compound 10 µM
[37] = second compound 1 µM, first compound 3.16 µM
[38] = second compound 1 µM, first compound 10 µM
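Note: spheroids exposed to compound for seven days before viability readout.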

Nc1ccn(C2OC(CO)C(O)C2(F)F)c(=O)n1 (stereo unspecified) + C=CC(=O)N1CCN(c2nc(OCC3CCCN3C)nc3c(F)c(-c4nc(N)cc(C)c4C(F)(F)F)c(Cl)cc23)C(C)C1
IC50 [1]: < 3.16 nM | IC50 [2]: < 3.16 nM | IC50 [3]: < 3.16 nM | IC50 [4]: < 3.16 nM | IC50 [5]: < 3.16 nM | IC50 [6]: < 3.16 nM | viability, T/C (second compound 0.00316 µM, first compound 0.00316 µM): 21.5% | viability, T/C (second compound 0.00316 µM, first compound 0.01 µM): 7.36% | viability, T/C [7]: 6.2% | viability, T/C [8]: 4.92% | viability, T/C [9]: 5.23% | viability, T/C [10]: 5.62% | viability, T/C (second compound 0.01 µM, first compound 0.00316 µM): 17% | viability, T/C (second compound 0.01 µM, first compound 0.01 µM): 6.27% | viability, T/C [11]: 5.91% | viability, T/C [12]: 5.09% | viability, T/C [13]: 5.47% | viability, T/C [14]: 5.2% | viability, T/C (second compound 0.0316 µM, first compound 0.00316 µM): 21.6% | viability, T/C (second compound 0.0316 µM, first compound 0.01 µM): 6.92% | viability, T/C [15]: 6.95% | viability, T/C [16]: 5.38% | viability, T/C [17]: 5.08% | viability, T/C [18]: 4.96% | viability, T/C (second compound 0.1 µM, first compound 0.00316 µM): 22.6% | viability, T/C (second compound 0.1 µM, first compound 0.01 µM): 6.48% | viability, T/C [19]: 4.56% | viability, T/C [20]: 4.77% | viability, T/C [21]: 4.97% | viability, T/C [22]: 4.84% | viability, T/C (second compound 0.316 µM, first compound 0.00316 µM): 19.2% | viability, T/C (second compound 0.316 µM, first compound 0.01 µM): 8.3% | viability, T/C [23]: 4.99% | viability, T/C [24]: 5.68% | viability, T/C [25]: 6.7% | viability, T/C [26]: 4.81% | viability, T/C (second compound 1 µM, first compound 0.00316 µM): 22.9% | viability, T/C (second compound 1 µM, first compound 0.01 µM): 6.24% | viability, T/C [27]: 4.96% | viability, T/C [28]: 6.96% | viability, T/C [29]: 7.44% | viability, T/C [30]: 5.82%

CC1(O)CCCC1n1c(=O)c(C(F)F)cc2cnc(NC3CCN(S(C)(=O)=O)CC3)nc21 (stereo unspecified) + C#Cc1c(F)ccc2cc(O)cc(-c3ncc4c(N5CC6CCC(C5)N6)nc(OCC56CCCN5CC(F)C6)nc4c3F)c12
IC50 [3]: 66 nM | IC50 [4]: 80.9 nM | IC50 [5]: 86.3 nM | IC50 [6]: 52.8 nM | IC50 (curve of first compound, second compound 3.16 µM): 79.3 nM | IC50 (curve of first compound, second compound 10 µM): < 31.6 nM | viability, T/C [15]: 62.5% | viability, T/C [16]: 43.8% | viability, T/C [17]: 23% | viability, T/C [18]: 27.6% | viability, T/C [31]: 23.2% | viability, T/C [32]: 3.27% | viability, T/C [19]: 83.5% | viability, T/C [20]: 41.3% | viability, T/C [21]: 23.1% | viability, T/C [22]: 16.2% | viability, T/C [33]: 18.7% | viability, T/C [34]: 3.67% | viability, T/C [23]: 84.5% | viability, T/C [24]: 41.7% | viability, T/C [25]: 25.2% | viability, T/C [26]: 25.8% | viability, T/C [35]: 20.1% | viability, T/C [36]: 3.12% | viability, T/C [27]: 60.5% | viability, T/C [28]: 35.9% | viability, T/C [29]: 28.9% | viability, T/C [30]: 26.5% | viability, T/C [37]: 19.9% | viability, T/C [38]: 4.34% | viability, T/C (second compound 3.16 µM, first compound 0.0316 µM): 67.6% | viability, T/C (second compound 3.16 µM, first compound 0.1 µM): 41.9% | viability, T/C (second compound 3.16 µM, first compound 0.316 µM): 29.9% | viability, T/C (second compound 3.16 µM, first compound 1 µM): 25% | viability, T/C (second compound 3.16 µM, first compound 3.16 µM): 25.5% | viability, T/C (second compound 3.16 µM, first compound 10 µM): 4.16% | viability, T/C (second compound 10 µM, first compound 0.0316 µM): 49.8% | viability, T/C (second compound 10 µM, first compound 0.1 µM): 12.9% | viability, T/C (second compound 10 µM, first compound 0.316 µM): 16.3% | viability, T/C (second compound 10 µM, first compound 1 µM): 14.4% | viability, T/C (second compound 10 µM, first compound 3.16 µM): 9.5% | viability, T/C (second compound 10 µM, first compound 10 µM): 1.44%

Cc1nc(N2CCC3(CC2)COC(C)C3N)c(CO)nc1Sc1ccnc(N)c1Cl (stereo unspecified) + C=CC(=O)N1CCN(c2nc(OCC3CCCN3C)nc3c(F)c(-c4nc(N)cc(C)c4C(F)(F)F)c(Cl)cc23)C(C)C1
IC50 [1]: > 10000 nM | IC50 [2]: > 10000 nM | IC50 [3]: > 10000 nM | IC50 [4]: > 10000 nM | IC50 [5]: > 10000 nM | IC50 [6]: > 10000 nM | viability, T/C [7]: 100% | viability, T/C [8]: 83.6% | viability, T/C [9]: 131% | viability, T/C [10]: 86.9% | viability, T/C (second compound 0.00316 µM, first compound 3.16 µM): 81.7% | viability, T/C (second compound 0.00316 µM, first compound 10 µM): 102% | viability, T/C [11]: 78.4% | viability, T/C [12]: 80.5% | viability, T/C [13]: 92.5% | viability, T/C [14]: 92.5% | viability, T/C (second compound 0.01 µM, first compound 3.16 µM): 104% | viability, T/C (second compound 0.01 µM, first compound 10 µM): 98.3% | viability, T/C [15]: 84.3% | viability, T/C [16]: 107% | viability, T/C [17]: 87.1% | viability, T/C [18]: 73.6% | viability, T/C [31]: 120% | viability, T/C [32]: 99% | viability, T/C [19]: 82.8% | viability, T/C [20]: 64.9% | viability, T/C [21]: 92.5% | viability, T/C [22]: 87.3% | viability, T/C [33]: 81.2% | viability, T/C [34]: 82.9% | viability, T/C [23]: 81% | viability, T/C [24]: 89.2% | viability, T/C [25]: 73.4% | viability, T/C [26]: 81.7% | viability, T/C [35]: 86% | viability, T/C [36]: 87.1% | viability, T/C [27]: 105% | viability, T/C [28]: 76.5% | viability, T/C [29]: 95.8% | viability, T/C [30]: 108% | viability, T/C [37]: 88.1% | viability, T/C [38]: 105%

CCC(CC)c1cc(NC2CCC(N)C2)n2nccc2n1 (stereo unspecified)
viability, T/C (compound 0.0316 µM): 101% [middle of 4 runs] | viability, T/C (compound 1 µM): 41.9% [middle of 4 runs] | viability, T/C (compound 3.16 µM): 2.95% [middle of 4 runs] | viability, T/C (compound 10 µM): 2.61% [middle of 4 runs] | IC50 (curve of compound): 778 nM [middle of 4 runs]
